Measurements as given in patent publication US20150344535A1, “NEUROTROPHIN-TYROSINE KINASE RECEPTOR SIGNALING” (THE UNIVERSITY OF QUEENSLAND, priority 2012, published 2015).

Tests used:
PC12 cells [1] = assay: PC12 cell neurite outgrowth in response to EGF; format: cell-based; details: EGF plus secretase inhibitor, 5 days
Experimental: (§1) To assess the effect of p75^NTR constructs (FIG. 2) or c29 peptide on TrkA-mediated neuritogenesis, transfected PC12 cells were grown in the presence of 100 ng/ml NGF for 3 days, with fresh medium and NGF treatments added on day 2. Cells were then imaged live on an Olympus (IX81) microscope fitted with a CO2 atmospheric chamber, using analySIS software. Four random images of 80-100 cells were taken for each treatment condition and images were determined by measuring polygon neurite length of all cells in each image. Data analysis was performed using Graphpad PRISM.
To determine whether the effect of the c29 peptide on enhancement of neurite outgrowth was NGF and TrkA specific, we repeated the experiment using EGF to stimulate differentiation.

PC12 cells [2] = assay: PC12 cell neurite outgrowth in response to NGF; format: cell-based; details: NGF plus secretase inhibitor over 5 days
TrkA = assay: Biotinylated peptide pull down of TrkA; format: binding; details: TrkA pull downs, FIG. 15F
Experimental: For peptide pull down assays, the biotinylated c29 or LC1 control peptides were incubated with protein A-sepharose beads or Dynabeads MyOne Streptavidin T1 (Invitrogen) overnight at 4° C. Cell lysates were then added to the peptide-protein A-sepharose complex or Dynabeads MyOne Streptavidin T1 and incubated for 3 hours at 4° C. Peptide-receptor complexes were washed extensively with RIPA lysis buffer and eluted by boiling in Laemmli sample buffer. For p75^NTR construct immunoprecipitations, HEK293 cells were treated with NGF at 50 ng/ml for 10 minutes 48 hours after transfection with 1 μg DNA per well. Cells were immediately harvested in ice-cold phosphate buffered saline (PBS) and washed twice, then lysed in 1 ml of lysis buffer. Cell lysates were pre-cleared in 75 μl (1:2) protein-G sepharose: PBS by rotation end-over-end for 2 hours at 4′C. Lysates were then incubated with 3-5 μg antibody, either mouse-anti-YFP/GFP (Roche) or rabbit-anti-human p75^NTR intracellular domain antibody (Promega), and rotated end-over-end for 2 hours at 4° C.
(§2) Immunoprecipitation was performed by the addition of 75 μl (1:2) protein-G sepharose: PBS and incubation end-over-end for 16 hours at 4° C. The immunoprecipitate was washed 4 times with 1 ml of PBS then eluted in 60 μl 2×LDS sample buffer. For immunoblotting, samples were boiled for 5 minutes, separated by SDS-PAGE and transferred onto nitrocellulose membranes, then western blotted using standard protocols (see Example 1 for antibodies used).
The c29 peptide was labelled with biotin and attached to a sepharose bead column. Lysates from cells was passed over the column followed by several wash steps. The proteins that bound to the c29 peptide (proteins that are pulled down) were eluted from the column with SDS buffer and separated in size by SDS-PAGE electrophoresis. The gel was Western blotted and the membrane probed with antibodies to proteins of interest.

PC12 cells [3] = assay: PC12 cell neurite outgrowth in response to NGF; format: cell-based; details: for neurite growth: fragments incubated with PC12 cells and NGF, FIG. 16
Experimental: as §1
Once PC12 cells are fully differentiated, they become dependent on NGF for survival (Greene, 1978), but can survive if grown in the presence of lower concentrations of NGF (Greene and Tischler, 1976). To determine if c29 could potentiate TrkA-mediated signals, PC12 cells were cultured in the presence of NGF concentrations ranging from 1-100 ng/ml for 5 days, following serum starvation and pre-incubation with c29, scrambled control peptide or no peptide (FIG. 5A). […] Peptides (1 μM) were added to the cultures every 48 hours at the time of NGF addition and medium exchange.

TrkA and p75^NTR = assay: Surface biotinylation of receptors in PC12 cells; format: cell-based; details: 1 μM peptide, with or without NGF
Experimental: FIG. 10: The juxtamembrane domain of p75^NTR increases the association of NGF to cells expressing TrkA. (A and B) Dose response graphs of the proportion (%) of PC12 cells with fluorescence intensity above background following treatment with 26 […] NGFFITC, a FITC-conjugated antibody to the extracellular domain of p75^NTR (A), or an antibody to TrkA (detected using an anti-rabbit Alexa 594 secondary) (B), after pretreatment with increasing concentrations of […] peptide. (n=3 experiments per data point; mean±SEM *p<0.05, **p<0.01) (C) Representative western blots (WB) of TrkA and p75^NTR present in streptavidin precipitates (surface biotin), or lysate flow through of PC12 cells that had been treated for 1 hour with NGF and/or c29 and scrambled (SC) peptide, prior to the surface proteins being labelled with biotin for 90 minutes on ice.

[4] = test system: primary E13 motor neurons; assay: Primary motor neuron survival and growth factor withdrawal; format: cell-based, mouse; details: 1 ng/ml BDNF plus NGF
Experimental: Briefly, pregnant mothers were sacrificed by cervical dislocation and the uterus removed by Caesarean section and placed in Neurobasal medium. Lumbar spinal cords were dissected from E13 embryos on ice. Batches of 2 or 3 spinal cords were incubated in 1 mL 0.05% trypsin-ETDA for 10 minutes at 37° C. in 15 mL tubes. To prevent further trypsinisation, 0.14 mg/mL trypsin inhibitor solution was added and the tissue centrifuged at 100×g for 7 minutes, without acceleration or deceleration. The supernatant was removed and the spinal cord tissue was resuspended in 1 mL of Neurobasal Medium (NB). In order to obtain a single cell suspension, each batch of 2-3 spinal cords was agitated manually for 2 minutes. The suspension was allowed to settle and the supernatant collected after being filtered through a 100 μm sieve. The remaining tissue was further triturated ˜8 times through a P200 pipette and filtered through a 100 μm sieve. The combined supernatants were then separated by centrifugation on a 5 ml cushion of 9% (vol/vol) OptiPrep® gradient in NB containing 2% B27 supplement for 45 min at 850×g, without acceleration or deceleration. To prevent toxicity following Optiprep® separation, the layer containing MNs was harvested into 10 mL of NB containing 10% HS, and the cell suspension was centrifuged at 900×g for 7 minutes at 24° C., without acceleration or deceleration. The supernatant was removed and the cell pellet was resuspended in 1 mL of NB medium.
The number of viable motor neurons was counted on a haemocytometer using 0.08% trypan blue and neurons plated in 4-well culture dishes at a density of 3,000 cells per well in 100 μL NB containing 10% HS. […] Primary motor neurons were maintained at 37° C. in a humidified atmosphere with 5% CO2 and culture medium was replaced at day 1 and 3. Phase contrast images of motor neurons were taken using an Olympus (6IX81) microscope after motor neurons were grown in vitro for up to 7 days.
To assess the effects of c29 peptide on motor neuronal survival in limiting growth factor concentrations, isolated spinal motor neurons were plated and treated with 0.01, 0.1 or 1.0 ng/ml of BDNF in the presence of 1 μm PTD4-linked c29 or scrambled peptide, and cultured for 5 days with the addition of fresh BDNF and peptide treatments on day 2 and 4. For growth factor-withdrawal assays, following initial plating in 1 ng/ml of BDNF, CNTF or GDNF, cultures were washed four times with serum-free Neurobasal (NB) medium, after which the medium was replaced with medium containing 1-0.01 ng/ml of BDNF, CNTF or GDNF and 1 μM PTD4-linked c29 or scrambled peptides, as indicated. For assays investigating the effect of c29 on NGF-mediated motor neuron death, cultures were grown in 1 ng/ml BDNF, CNTF or GDNF for 1 day, before being treated with 100 ng/ml 2.5S NGF in and 1 μM PTD4-linked c29 or scrambled peptide, as indicated. Motor neurons were counted on day 1, and to assess the effects of various treatments days 3 and 5 (4 separate 10×10 grid fields of each well per experiment).

HEK293 cells = assay: NGF-FITC binding by flow cytometry, non-transfected HEK293 cells
Experimental: (§3) Background fluorescence of HEK293 cells was non-transfected cells (±c29 or scrambled peptide treatment) treated with 26 nM NGF-FITC. For PC12 cells, the control population was cells that had not been treated with NGF-FITC. Analysis of real-time NGF-FITC receptor binding experiments was performed on 550,000-600,000 cells at 4° C. in serum free NB medium and binding kinetics were calculated from raw data files compressed to 50,000 binding events using FlowJo and MatLab Software. Data was plotted with the use of GraphPad Prism.
Only NGF-FITC preparations that promoted equivalent neurite outgrowth of PC12 cells to that of unlabelled NGF were used in binding experiments. To investigate NGF binding, PC12 or transfected HEK293 cells were serum starved for 4 hours, harvested, washed with Dulbecco's Modified Eagle Medium (DMEM), and counted. When used, c29 or scrambled peptide were added to cultures for the third hour of the serum starvation procedure. […] For binding competition assays, following 1 hour in NGF-FITC, cells were washed with ice-cold PBS containing 0.1% normal bovine serum and incubated on ice with unlabeled NGF at concentrations ranging from 100 pM to 10 μM for 30 minutes, then washed twice in PBS before being analysed on a BD Flow Cytometer FACS Scan (Becton-Dickinson).

p75^FL = assay: Production of endogenous p75^CTF or p75^ICD fragments in p75^FL-transfected HEK293 cells; format: cell-based; details: vs untreated cells, data not shown
PC12 cells [5] = assay: NGF-FITC binding by flow cytometry, PC12 cells; details: NGF-FITC, c.f. PC12
Experimental: The NGF was conjugated to FITC by standard methods and detailed flow cytometry acquisition and analysis. For NGF-FITC conjugation 400 μg βNGF in 200 μl pH 8.5 NaHCO3 buffer was mixed with 5-10 μl of 10 mg/ml FITC in 100 μl DMSO for 10 hours at 4° C. on an orbital shaker set to 100 rpm. The excess FITC was removed by dialysis against 3 changes of 5 L of 10 mM Tris, 150 mM NaCl, 0.2% acetic acid, pH 8.2 for 24 hours at 4° C. Conjugate F/P characterization was determined by measuring absorbance at 280 nm and 495 nm according to manufacturer's instructions. Biological activity of the NGF-FITC conjugate was tested by performing PC12 cell neurite outgrowth assays unlabelled NGF, and comparing the levels of neuritogenesis. NGF-FITC conjugates were used within 4 weeks of synthesis.
For the flow cytometry NGF binding assays, fluorescence cell parameters of at least 20,000 events for PC12 cells and 100,000 events for HEK293 cells were acquired by flow cytometry list mode and measurements were performed on a single cell basis (with compensation for double event counting). Dead cells and debris were gated out of the analysis on the basis of forward scatter fluorescence, and mean, median and maximal fluorescence values of the gated cell populations were analysed using FACS Diva Software (Becton-Dickinson Biosciences) and FACS Express Software (Becton-Dickinson Biosciences).
as §3
Only NGF-FITC preparations that promoted equivalent neurite outgrowth of PC12 cells to that of unlabelled NGF were used in binding experiments. To investigate NGF binding, PC12 or transfected HEK293 cells were serum starved for 4 hours, harvested, washed with Dulbecco's Modified Eagle Medium (DMEM), and counted. When used, c29 or scrambled peptide were added to cultures for the third hour of the serum starvation procedure. 1×10^7 cells/ml suspended in 500 μl of serum-free DMEM were incubated with 26 nM NGF-FITC on ice for 60 minutes before analysis. For binding competition assays, following 1 hour in NGF-FITC, cells were washed with ice-cold PBS containing 0.1% normal bovine serum and incubated on ice with unlabeled NGF at concentrations ranging from 100 pM to 10 μM for 30 minutes, then washed twice in PBS before being analysed on a BD Flow Cytometer FACS Scan (Becton-Dickinson).
First, to determine the concentration of c29 required to modulate NGF binding, c29 levels were titrated with a fixed concentration of NGF-FITC.

pErk1/2 and pAkt = assay: Western blot of pErk1/2 and pAkt in PC12 cell lysates; format: cell-based; details: absence of NGF, 24 hours
Experimental: In biochemical experiments, PC12 and HEK293 cells were lysed for 20 minutes on ice in lysis buffer as described by (Ceni et al., 2010). Briefly, the lysis buffer contained 10 mM Tris-HCl, 150 mM NaCl, 2 mM EDTA, 1% (v/v) NP-40, 1% (v/v) TX-100, 10% Glycerol, 1 mM PMSF, 1 mM Sodium Orthovanadate, 1 μM BB94, 1% (v/v) Roche protease inhibitor cocktail and pH 8.0 (Ceni et al., 2010).
as §2
The observed functional effects on neurite outgrowth and survival were next correlated with enhanced activation of signal transduction pathways that mediate the trophic effects of TrkA. Lysates of cells treated for 24 hours with NGF alone or in combination with c29 or scrambled peptide were immunoblotted for pErk1/2 (neurite outgrowth), and the serine/threonine protein kinase Akt (survival). […] Total levels of Erk1/2 or Akt were unaffected by any treatment (FIG. 6 A, B).

Molecule: CC(C)C[C@H](CC(=O)NO)C(=O)N[C@H](C(=O)N[C@@H](C)C(=O)NCCN)C(C)(C)C [TAPI-2, N—(R)-(2-(Hydroxyaminocarbonyl)Methyl)-4-Methylpentanoyl-L-t-Butyl-Glycine-L-Alanine 2-Aminoethyl Amide]
- PC12 cell differentiation induced by EGF (PC12 cells [1]): neither the α- nor the γ-secretase inhibitor had any significant effect
- neurite length (PC12 cells [2]): 20 μm

Molecule: C[C@H](NC(=O)Cc1cc(F)cc(F)c1)C(=O)N[C@H]1N=C(c2ccccc2)c2ccccc2N(C)C1=O [compound E, (S,S)-2-[2-(3,5-Difluorophenyl)-acetylamino]-N-(1-methy-2-oxo-5-phenyl-2,3-dihydro-1H-benzo[e][1,4]diazepin-3-yl)-propionamide]
- PC12 cell differentiation induced by EGF (PC12 cells [1]): neither the α- nor the γ-secretase inhibitor had any significant effect
- neurite length (PC12 cells [2]): 20 μm

Molecule: (22-29): truncated peptide fragment of c29, residues 22-29 (PPPEGEKL)
- TrkA binding of biotinylated fragments (TrkA): clearly bind TrkA
- neurite growth (PC12 cells [3]): stimulated neurite growth

Molecule: ARWNSC [c1-6K1A]
- neurite growth (PC12 cells [3]): stimulated neurite growth

Molecule: KRWASA [c1-6C6A]
- neurite growth (PC12 cells [3]): stimulated neurite growth

Molecule: KRWASC [c1-6N4A]
- neurite growth (PC12 cells [3]): stimulated neurite growth

Molecule: KRWNSC (c1-6 - Fragment of p75ICD) [(1-6)]
- TrkA binding of biotinylated fragments (TrkA): clearly bind TrkA
- neurite growth (PC12 cells [3]): stimulated neurite growth

Molecule: KRWNSCKQNKQGAN (c1-14 - Fragment of p75ICD) [(1-14)]
- TrkA binding of biotinylated fragments (TrkA): clearly bind TrkA
- neurite growth (PC12 cells [3]): stimulated neurite growth

Molecule: SKGQVCRNQPGQNKPEPANKSWKETPLRN [SC, randomly scrambled version of c29, reference compound]
- surface or total receptor levels of TrkA and p75^NTR (TrkA and p75^NTR): no significant difference
- NGF-induced cell death of motor neurons [4]: no effect
- fluorescence of nontransfected cells incubated with peptide and NGF-FITC (HEK293 cells): only background levels of fluorescence
- rate of production of endogenous p75^CTF or p75^ICD fragments (p75^FL): did not differ significantly
- % of cell population with FITC above background (PC12 cells [5]): 100.3 ± 5.1%
- Maximal fluorescence per cell of the population (PC12 cells [5]): 100.4 ± 9.6%
- Mean fluorescence per FITC-positive cell (PC12 cells [5]): 95.3 ± 7.4%
- Median population fluorescence (PC12 cells [5]): 97.0 ± 3.8%
- median neurite outgrowth (PC12 cells [3]; 100 ng/ml NGF, day 5, peptide 1 μM, vs untreated cultures): no difference
- pAkt signalling (pErk1/2 and pAkt): no effect
- pErk1/2 signalling (pErk1/2 and pAkt): no effect

Molecule: SRPVNQTPPPEGEKL (c15-29 - Fragment of p75ICD) [(15-29)]
- TrkA binding of biotinylated fragments (TrkA): clearly bind TrkA
- neurite growth (PC12 cells [3]): stimulated neurite growth
